Experimental data taken from patent publication US12139520B2 (priority 2020, dated 2024).
pEC50: −log10 of the molar value. Numbered stars: 1 amine (or outer) side, 2 acyl side, 3 side chain; on linkers, the order of the positions; unused ones are H or OH. Bridge positions count the residues as written; N and C are the ends. Square brackets hold non-standard residues; d marks the D form. Peptide text beside a SMILES is read from it. * marks the point of attachment. C20 diacid = O=C(O)CCCCCCCCCCCCCCCCCCC(=O)*; γGlu = O=C(O)[C@H](CCC(=O)[*:2])N[*:1]; Hyp = O=C(O)[C@@H]1C[C@@H](O)CN1

Key:
[1] = biological target: T1, hAMY3 receptor (Homo sapiens, UniProt O60896+P30988); test: cAMP assay for in vitro receptor activation, hAMY3-R; format: cell-based; settings: cAMP assay, hAMY3 receptor; read-out: hAMY3R EC50
T1 sequence (P30988 25-474): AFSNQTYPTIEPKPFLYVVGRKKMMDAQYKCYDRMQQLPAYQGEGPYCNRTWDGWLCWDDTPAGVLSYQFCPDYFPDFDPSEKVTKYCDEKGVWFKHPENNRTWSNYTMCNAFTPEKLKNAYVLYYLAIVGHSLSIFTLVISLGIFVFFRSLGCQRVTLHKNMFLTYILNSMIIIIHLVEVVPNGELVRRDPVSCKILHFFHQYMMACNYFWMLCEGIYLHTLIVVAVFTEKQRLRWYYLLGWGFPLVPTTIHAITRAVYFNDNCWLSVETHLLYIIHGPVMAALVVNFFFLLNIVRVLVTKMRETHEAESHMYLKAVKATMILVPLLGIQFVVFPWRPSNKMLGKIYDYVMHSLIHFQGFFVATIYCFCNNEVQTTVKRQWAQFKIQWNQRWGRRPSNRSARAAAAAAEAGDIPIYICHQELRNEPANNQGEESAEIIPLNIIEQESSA
T1 sequence (O60896 24-148 partner): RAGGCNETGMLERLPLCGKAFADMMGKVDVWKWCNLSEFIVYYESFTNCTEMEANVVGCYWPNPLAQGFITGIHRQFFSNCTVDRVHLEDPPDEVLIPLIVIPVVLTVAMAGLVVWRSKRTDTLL
Summary of the method: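 Stable hAMY3 cells; DPBS + 0.05% casein + 0.5 mM IBMX; graded compound doses, 30 min, RT; cAMP via HTRF Gs kit, TR-FRET read at 1 h.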

[2] = biological target: hAM1 receptor (Homo sapiens, UniProt O60895+Q16602); test: cAMP assay for in vitro receptor activation, hAM1-R; format: cell-based; settings: cAMP assay, hAM1 receptor; read-out: hAM1R EC50
hAM1 receptor, sequence (Q16602 23-461): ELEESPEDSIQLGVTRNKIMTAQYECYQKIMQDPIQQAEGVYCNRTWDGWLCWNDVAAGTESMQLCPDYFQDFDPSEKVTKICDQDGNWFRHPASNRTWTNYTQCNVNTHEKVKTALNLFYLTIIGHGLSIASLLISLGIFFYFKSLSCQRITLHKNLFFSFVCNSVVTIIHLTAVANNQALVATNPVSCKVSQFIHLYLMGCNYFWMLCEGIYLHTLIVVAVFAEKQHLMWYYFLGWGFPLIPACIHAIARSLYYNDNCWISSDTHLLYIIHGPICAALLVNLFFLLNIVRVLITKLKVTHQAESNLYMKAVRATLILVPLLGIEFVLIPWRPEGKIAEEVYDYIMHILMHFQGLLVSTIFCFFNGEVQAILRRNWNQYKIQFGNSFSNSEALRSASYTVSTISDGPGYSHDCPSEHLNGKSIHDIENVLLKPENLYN
hAM1 receptor, sequence (O60895 43-175 partner): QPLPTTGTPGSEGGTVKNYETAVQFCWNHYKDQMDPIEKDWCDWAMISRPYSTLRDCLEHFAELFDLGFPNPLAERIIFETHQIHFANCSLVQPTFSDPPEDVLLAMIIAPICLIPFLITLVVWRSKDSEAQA
Summary of the method: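 Stable hAM1 cells (monoclonal) plated 8000/well; buffer DPBS, 0.05% casein, 0.5 mM IBMX; cAMP read-out.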

pEC50 [1]	pEC50 [2]	Structure (SMILES)
11.22	< 5.30	CC[C@H](C)[C@H](NC(=O)[C@H](CCC(N)=O)NC(=O)[C@H](CC(=O)O)NC(=O)[C@H](C)NC(=O)[C@H](CC(C)C)NC(=O)[C@H](CCCNC(=N)N)NC(=O)[C@H](CCC(N)=O)NC(=O)[C@@H](NC(=O)[C@@H](NC(=O)[C@@H]1CSSC[C@H](NC(=O)[C@H](CCCCN)NC(=O)CC[C@H](NC(=O)CCCCCCCCCCCCCCCCCCC(=O)O)C(=O)O)C(=O)N[C@@H](CC(N)=O)C(=O)N[C@@H]([C@@H](C)O)C(=O)N[C@@H](C)C(=O)N[C@@H]([C@@H](C)O)C(=O)N1)[C@@H](C)O)C(C)C)C(=O)N[C@@H](Cc1ccc(O)cc1)C(=O)N[C@@H](CCC(N)=O)C(=O)N[C@@H](Cc1ccccc1)C(=O)N[C@H](C(=O)N[C@@H](CC(=O)O)C(=O)N[C@@H](CCCCN)C(=O)N[C@@H](CC(=O)O)C(=O)N[C@@H](CCCCN)C(=O)N[C@@H](CC(=O)O)C(=O)N[C@@H](CC(N)=O)C(=O)N[C@H](C(=O)N[C@@H](C)C(=O)N1CCC[C@H]1C(=O)N1CCC[C@H]1C(=O)N[C@H](C(=O)N[C@@H](CC(N)=O)C(=O)N[C@H](C(=O)NCC(=O)N[C@@H](CO)C(=O)N[C@@H](CC(N)=O)C(=O)NCC(=O)N1C[C@H](O)C[C@H]1C(N)=O)C(C)C)[C@@H](C)O)C(C)C)[C@@H](C)O [compound 5] ({C20 diacid-γGlu}-KCNTATCTVQRLADQIYQFTDKDKDNVAPPTNVGSNG[Hyp]-NH2; disulfide 2-7)
11.00	< 5.30	CC[C@H](C)[C@H](NC(=O)[C@H](CCC(N)=O)NC(=O)[C@H](Cc1c[nH]cn1)NC(=O)[C@H](C)NC(=O)[C@H](CC(C)C)NC(=O)[C@H](CCCNC(=N)N)NC(=O)[C@H](CC(N)=O)NC(=O)[C@@H](NC(=O)[C@@H](NC(=O)[C@@H]1CSSC[C@H](NC(=O)[C@H](CCCCN)NC(=O)CC[C@H](NC(=O)CCCCCCCCCCCCCCCCCCC(=O)O)C(=O)O)C(=O)N[C@@H](CC(N)=O)C(=O)N[C@@H]([C@@H](C)O)C(=O)N[C@@H](C)C(=O)N[C@@H]([C@@H](C)O)C(=O)N1)[C@@H](C)O)C(C)C)C(=O)N[C@@H](Cc1ccc(O)cc1)C(=O)N[C@@H](CCC(N)=O)C(=O)N[C@@H](Cc1ccccc1)C(=O)N[C@H](C(=O)N[C@@H](CC(=O)O)C(=O)N[C@@H](CCCCN)C(=O)N[C@@H](CC(=O)O)C(=O)N[C@@H](CCCCN)C(=O)N[C@@H](CC(=O)O)C(=O)N[C@@H](CC(N)=O)C(=O)N[C@H](C(=O)N[C@@H](C)C(=O)N1CCC[C@H]1C(=O)N1CCC[C@H]1C(=O)N[C@H](C(=O)N[C@@H](CC(N)=O)C(=O)N[C@H](C(=O)NCC(=O)N[C@@H](CO)C(=O)N[C@@H](CC(N)=O)C(=O)NCC(=O)N1C[C@H](O)C[C@H]1C(N)=O)C(C)C)[C@@H](C)O)C(C)C)[C@@H](C)O [compound 38] ({C20 diacid-γGlu}-KCNTATCTVNRLAHQIYQFTDKDKDNVAPPTNVGSNG[Hyp]-NH2; disulfide 2-7)
10.40	< 5.30	CC[C@H](C)[C@H](NC(=O)[C@H](C)NC(=O)CNC(=O)[C@H](Cc1ccccc1)NC(=O)[C@H](CC(N)=O)NC(=O)[C@H](CC(N)=O)NC(=O)[C@H](CO)NC(=O)[C@H](CO)NC(=O)[C@H](Cc1c[nH]cn1)NC(=O)[C@@H](NC(=O)[C@H](CC(C)C)NC(=O)[C@H](Cc1ccccc1)NC(=O)[C@H](CC(N)=O)NC(=O)[C@H](C)NC(=O)[C@H](CC(C)C)NC(=O)[C@H](CCCNC(=N)N)NC(=O)[C@H](CCC(N)=O)NC(=O)[C@@H](NC(=O)[C@H](C)NC(=O)[C@@H]1CSSC[C@H](NC(=O)[C@@H](N)CCCCN)C(=O)N[C@@H](CC(N)=O)C(=O)N[C@@H]([C@@H](C)O)C(=O)N[C@@H](C)C(=O)N[C@@H]([C@@H](C)O)C(=O)N1)[C@@H](C)O)C(C)C)C(=O)N[C@@H](CC(C)C)C(=O)N[C@@H](CO)C(=O)N[C@@H](CO)C(=O)N[C@H](C(=O)N[C@@H](CCCCN)C(=O)N[C@H](C(=O)NCC(=O)N[C@@H](CO)C(=O)N[C@@H](CC(N)=O)C(=O)NCC(=O)N[C@@H](Cc1ccc(O)cc1)C(N)=O)[C@@H](C)CC)[C@@H](C)O [compound 148] (H-KCNTATCATQRLANFLVHSSNNFGAILSSTKIGSNGY-NH2; disulfide 2-7; N-terminus assumed)
